Measured values published in ChEMBL document CHEMBL1201862, “PubChem BioAssay data set” (2004).
Several values for one entry are separate records, joined by “and”; a condition that tells them apart may be missing. Identical values can stand only once. Activity calls are given as the source filed them.

Tests used:
[1] = target: Dual specificity protein kinase CLK2 (Homo sapiens, UniProt P49760); assay type: functional
[2] = target: Protein kinase C delta type (Homo sapiens, UniProt Q05655); assay type: functional
[3] = target: Serine/threonine-protein kinase D2 (Homo sapiens, UniProt Q9BZL6); assay type: functional;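 further: measured against PRKD2 as one member of a kinome-wide kinase profiling panel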
[4] = target: Tyrosine-protein kinase SYK (Homo sapiens, UniProt P43405); assay type: functional
[5] = target: Serine/threonine-protein kinase pim-1 (Homo sapiens, UniProt P11309); assay type: functional
[6] = target: Fibroblast growth factor receptor 1 (Homo sapiens, UniProt P11362); assay type: functional
[7] = target: Ribosomal protein S6 kinase alpha-5 (Homo sapiens, UniProt O75582); assay type: functional
[8] = target: Mitogen-activated protein kinase 9 (Homo sapiens, UniProt P45984); assay type: functional;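 further: value from a kinome panel profiling assay, MAPK9 panel entry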
[9] = target: Tyrosine-protein kinase Blk (Homo sapiens, UniProt P51451); assay type: functional;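 further: obtained as one member of a kinome-wide kinase assay panel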
[10] = target: Protein kinase C gamma type (Homo sapiens, UniProt P05129); assay type: functional
[11] = target: Mitogen-activated protein kinase 1 (Homo sapiens, UniProt P28482); assay type: functional
Misshapen-like kinase 1 = Misshapen-like kinase 1 (Homo sapiens, UniProt Q8N4C8); assay type: functional;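 further: kinome panel screen with MINK as the panel member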
[12] = target: Dual specificity tyrosine-phosphorylation-regulated kinase 4 (Homo sapiens, UniProt Q9NR20); assay type: functional
[13] = target: Mitogen-activated protein kinase kinase kinase kinase 5 (Homo sapiens, UniProt Q9Y4K4); assay type: functional;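 further: measured as one member of a kinome-spanning kinase panel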
[14] = target: Glycogen synthase kinase-3 beta (Homo sapiens, UniProt P49841); assay type: functional;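 further: value comes from a broad kinome profiling panel, with GSK3B as the panel member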
[15] = target: Serine/threonine-protein kinase BRSK1 (Homo sapiens, UniProt Q8TDC3); assay type: functional;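 further: measured within a kinome-wide kinase panel, with the target listed as KIAA1811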
[16] = viability of PTEN-deleted HCT116 cells – cell-based, HCT116 PTEN knockout, dose response (AID 1047); assay type: functional;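 further: HCT116 colon tumor cells with PTEN knocked out; cells exposed to compound for 60 hours before readout; potency for loss of cell viability measured by luminescence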
[17] = viability of HCT116 lacking mutant beta-catenin – cell-based, human colon tumor, dose response (AID 1045); assay type: functional;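 further: HCT116 colon tumor cells with beta catenin knocked out; cells exposed to compound for 60 hours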
Hexokinase = target: T1, Hexokinase (Trypanosoma brucei, UniProt Q38C41); assay: Confirmation assay for inhibitors of Trypanosoma brucei hexokinase 1-Analogue-first series. [Related pubchem assays (depositor defined):AID1430, AID1632, AID2516, AID2560, AID2579, AID2600, AID449725, AID492951]; assay type: functional
T1 sequence (Q38C41 whole entry): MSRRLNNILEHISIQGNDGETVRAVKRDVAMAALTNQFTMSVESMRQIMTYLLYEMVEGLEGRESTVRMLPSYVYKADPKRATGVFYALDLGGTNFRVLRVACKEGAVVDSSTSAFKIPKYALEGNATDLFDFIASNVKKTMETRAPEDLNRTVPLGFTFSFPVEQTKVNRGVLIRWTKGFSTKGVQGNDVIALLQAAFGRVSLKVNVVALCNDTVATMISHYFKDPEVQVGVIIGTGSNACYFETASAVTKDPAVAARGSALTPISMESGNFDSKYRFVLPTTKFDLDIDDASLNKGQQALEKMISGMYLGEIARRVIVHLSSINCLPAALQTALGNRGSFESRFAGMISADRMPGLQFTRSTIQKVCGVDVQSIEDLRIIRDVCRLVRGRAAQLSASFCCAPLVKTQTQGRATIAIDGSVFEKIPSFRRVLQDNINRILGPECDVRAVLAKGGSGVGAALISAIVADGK

[18] = THP-1 cell cytotoxicity, dose response, cytotoxicity control for non-replicating M. tuberculosis project (AID 489025); assay type: functional
Phosphomannomutase 2 = target: T2, Phosphomannomutase 2 (Homo sapiens, UniProt O15305); assay: Counter screen SAR assay for PMM2 inhibitors via a fluorescence intensity assay. [Related pubchem assays (depositor defined):AID1545, AID1574]
T2 sequence (O15305 whole entry): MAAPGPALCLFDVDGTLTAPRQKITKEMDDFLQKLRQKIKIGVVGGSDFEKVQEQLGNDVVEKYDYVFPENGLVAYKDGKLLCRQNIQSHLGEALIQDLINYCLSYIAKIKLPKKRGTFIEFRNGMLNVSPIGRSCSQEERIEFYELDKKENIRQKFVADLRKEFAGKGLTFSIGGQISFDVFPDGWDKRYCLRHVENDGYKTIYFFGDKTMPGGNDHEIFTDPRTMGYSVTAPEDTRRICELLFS

[19] = target: T3, Rac GTPase-activating protein 1 (Homo sapiens, UniProt Q9H0H5); assay: blockers of MgcRacGAP-driven Rac1 GTP hydrolysis – biochemical, ADP Hunter fluorescence, primary and confirmatory, confirmation (AID 624330); assay type: functional
T3 sequence (Q9H0H5 whole entry): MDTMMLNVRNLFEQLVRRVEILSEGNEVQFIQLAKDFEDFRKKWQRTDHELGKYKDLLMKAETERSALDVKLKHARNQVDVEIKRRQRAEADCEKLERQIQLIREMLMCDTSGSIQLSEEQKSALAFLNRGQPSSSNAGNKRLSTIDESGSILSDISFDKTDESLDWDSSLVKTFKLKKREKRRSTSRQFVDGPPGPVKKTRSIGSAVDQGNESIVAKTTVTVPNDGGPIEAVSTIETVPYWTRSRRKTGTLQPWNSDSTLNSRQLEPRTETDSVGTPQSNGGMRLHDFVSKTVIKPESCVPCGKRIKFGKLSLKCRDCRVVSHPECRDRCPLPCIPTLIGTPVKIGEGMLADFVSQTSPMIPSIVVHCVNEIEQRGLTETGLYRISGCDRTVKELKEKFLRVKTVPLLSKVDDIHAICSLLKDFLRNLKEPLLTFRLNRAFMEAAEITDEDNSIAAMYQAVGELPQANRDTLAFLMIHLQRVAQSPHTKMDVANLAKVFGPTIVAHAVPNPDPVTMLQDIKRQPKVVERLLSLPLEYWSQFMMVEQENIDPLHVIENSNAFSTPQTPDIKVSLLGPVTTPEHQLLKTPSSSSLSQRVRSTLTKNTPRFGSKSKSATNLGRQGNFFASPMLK

ORF 73 = ORF 73 (Human herpesvirus 8, UniProt O40947); assay: KSHV LANA DNA-binding disruption – biochemical, fluorescence polarization, cherry-picked samples, dose response (AID 504725); parameters: species or system Human gammaherpesvirus 8;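 further: fluorescence polarization of a labeled DNA duplex reporting LANA DNA binding; potency is for inhibitors that block LANA binding to the DNA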
Cytochrome P450 3A4 = Cytochrome P450 3A4 (Homo sapiens, UniProt P08684);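 further: CYP3A4 tested as one member of a cytochrome P450 panel screen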
[20] = target: Serine/threonine-protein phosphatase (Candida dubliniensis (strain CD36 / CBS 7987 / NCPF 3949 / NRRLY-17841) (Yeast), UniProt B9W6M3); assay: Fluorescence Cell-Based Secondary Assay to Identify Inhibitors of Calcineurin. [Related pubchem assays (depositor defined):AID1979, AID2007]; assay type: functional

Chain of Mitogen-activated protein kinase kinase kinase kinase 5 (Q9Y4K4 whole entry): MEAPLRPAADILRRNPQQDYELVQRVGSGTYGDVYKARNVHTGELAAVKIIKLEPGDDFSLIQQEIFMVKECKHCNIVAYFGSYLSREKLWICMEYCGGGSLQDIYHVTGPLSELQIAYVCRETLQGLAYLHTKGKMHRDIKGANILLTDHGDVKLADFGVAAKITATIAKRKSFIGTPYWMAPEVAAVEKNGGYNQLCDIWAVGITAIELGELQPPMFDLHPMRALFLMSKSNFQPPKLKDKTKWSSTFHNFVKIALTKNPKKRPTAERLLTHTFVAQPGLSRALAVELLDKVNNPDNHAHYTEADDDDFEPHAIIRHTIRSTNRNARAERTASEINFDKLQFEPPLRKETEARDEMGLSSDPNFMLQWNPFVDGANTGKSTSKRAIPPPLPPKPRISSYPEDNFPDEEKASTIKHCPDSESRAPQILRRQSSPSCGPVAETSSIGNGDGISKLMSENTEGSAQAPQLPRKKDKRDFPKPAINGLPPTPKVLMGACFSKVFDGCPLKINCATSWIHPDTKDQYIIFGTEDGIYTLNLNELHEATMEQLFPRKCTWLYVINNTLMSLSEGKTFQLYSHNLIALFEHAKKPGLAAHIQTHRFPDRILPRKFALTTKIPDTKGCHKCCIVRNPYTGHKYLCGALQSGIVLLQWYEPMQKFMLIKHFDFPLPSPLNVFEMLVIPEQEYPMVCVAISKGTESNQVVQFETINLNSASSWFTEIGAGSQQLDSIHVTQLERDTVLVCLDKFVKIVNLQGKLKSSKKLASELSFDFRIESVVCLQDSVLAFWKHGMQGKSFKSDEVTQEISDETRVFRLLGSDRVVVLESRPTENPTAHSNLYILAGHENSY
Chain of Fibroblast growth factor receptor 1 (P11362 whole entry): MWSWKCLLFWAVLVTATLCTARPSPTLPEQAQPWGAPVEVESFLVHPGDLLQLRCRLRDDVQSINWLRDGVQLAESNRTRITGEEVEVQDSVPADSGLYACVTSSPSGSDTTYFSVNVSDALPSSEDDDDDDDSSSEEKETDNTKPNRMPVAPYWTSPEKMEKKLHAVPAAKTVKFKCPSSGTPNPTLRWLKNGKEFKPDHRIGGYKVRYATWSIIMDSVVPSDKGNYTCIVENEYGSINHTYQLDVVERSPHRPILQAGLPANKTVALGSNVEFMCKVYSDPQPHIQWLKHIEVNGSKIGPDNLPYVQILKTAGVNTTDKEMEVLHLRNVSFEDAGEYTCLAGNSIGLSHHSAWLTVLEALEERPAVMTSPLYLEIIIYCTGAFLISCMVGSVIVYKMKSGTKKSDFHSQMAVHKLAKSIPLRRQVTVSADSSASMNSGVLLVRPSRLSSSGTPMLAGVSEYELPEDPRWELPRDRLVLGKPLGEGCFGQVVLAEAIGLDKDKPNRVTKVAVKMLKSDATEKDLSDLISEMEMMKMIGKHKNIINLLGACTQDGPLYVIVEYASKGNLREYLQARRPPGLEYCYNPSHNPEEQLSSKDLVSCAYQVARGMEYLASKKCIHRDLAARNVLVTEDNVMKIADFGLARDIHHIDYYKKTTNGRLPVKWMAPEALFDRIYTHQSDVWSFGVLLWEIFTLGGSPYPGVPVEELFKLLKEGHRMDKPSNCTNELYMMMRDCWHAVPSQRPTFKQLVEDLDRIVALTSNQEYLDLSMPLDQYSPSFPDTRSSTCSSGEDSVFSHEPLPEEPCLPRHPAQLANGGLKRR
Chain of Glycogen synthase kinase-3 beta (P49841 whole entry): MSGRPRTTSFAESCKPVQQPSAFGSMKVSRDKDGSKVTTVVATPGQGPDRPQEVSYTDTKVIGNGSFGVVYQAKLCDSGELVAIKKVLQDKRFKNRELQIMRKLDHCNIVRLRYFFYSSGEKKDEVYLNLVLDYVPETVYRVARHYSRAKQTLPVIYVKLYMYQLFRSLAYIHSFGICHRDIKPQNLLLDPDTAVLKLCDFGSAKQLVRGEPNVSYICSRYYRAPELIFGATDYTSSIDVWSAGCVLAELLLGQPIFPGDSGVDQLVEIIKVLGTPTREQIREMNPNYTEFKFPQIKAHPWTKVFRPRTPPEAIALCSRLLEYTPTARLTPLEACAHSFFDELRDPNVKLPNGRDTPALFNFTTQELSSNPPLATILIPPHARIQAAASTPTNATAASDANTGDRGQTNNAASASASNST
Chain of Mitogen-activated protein kinase 9 (P45984 whole entry): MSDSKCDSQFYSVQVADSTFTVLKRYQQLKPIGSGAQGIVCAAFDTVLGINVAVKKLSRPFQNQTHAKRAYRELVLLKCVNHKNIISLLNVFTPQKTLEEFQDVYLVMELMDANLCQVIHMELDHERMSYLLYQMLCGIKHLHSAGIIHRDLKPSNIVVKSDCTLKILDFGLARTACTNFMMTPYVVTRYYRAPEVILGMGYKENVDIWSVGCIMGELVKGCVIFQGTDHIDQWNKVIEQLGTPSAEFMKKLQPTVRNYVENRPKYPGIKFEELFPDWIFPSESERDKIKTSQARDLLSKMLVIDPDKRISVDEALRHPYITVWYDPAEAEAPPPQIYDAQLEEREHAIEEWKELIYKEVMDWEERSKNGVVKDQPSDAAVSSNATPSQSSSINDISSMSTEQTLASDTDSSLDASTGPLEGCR
Chain of Misshapen-like kinase 1 (Q8N4C8 whole entry): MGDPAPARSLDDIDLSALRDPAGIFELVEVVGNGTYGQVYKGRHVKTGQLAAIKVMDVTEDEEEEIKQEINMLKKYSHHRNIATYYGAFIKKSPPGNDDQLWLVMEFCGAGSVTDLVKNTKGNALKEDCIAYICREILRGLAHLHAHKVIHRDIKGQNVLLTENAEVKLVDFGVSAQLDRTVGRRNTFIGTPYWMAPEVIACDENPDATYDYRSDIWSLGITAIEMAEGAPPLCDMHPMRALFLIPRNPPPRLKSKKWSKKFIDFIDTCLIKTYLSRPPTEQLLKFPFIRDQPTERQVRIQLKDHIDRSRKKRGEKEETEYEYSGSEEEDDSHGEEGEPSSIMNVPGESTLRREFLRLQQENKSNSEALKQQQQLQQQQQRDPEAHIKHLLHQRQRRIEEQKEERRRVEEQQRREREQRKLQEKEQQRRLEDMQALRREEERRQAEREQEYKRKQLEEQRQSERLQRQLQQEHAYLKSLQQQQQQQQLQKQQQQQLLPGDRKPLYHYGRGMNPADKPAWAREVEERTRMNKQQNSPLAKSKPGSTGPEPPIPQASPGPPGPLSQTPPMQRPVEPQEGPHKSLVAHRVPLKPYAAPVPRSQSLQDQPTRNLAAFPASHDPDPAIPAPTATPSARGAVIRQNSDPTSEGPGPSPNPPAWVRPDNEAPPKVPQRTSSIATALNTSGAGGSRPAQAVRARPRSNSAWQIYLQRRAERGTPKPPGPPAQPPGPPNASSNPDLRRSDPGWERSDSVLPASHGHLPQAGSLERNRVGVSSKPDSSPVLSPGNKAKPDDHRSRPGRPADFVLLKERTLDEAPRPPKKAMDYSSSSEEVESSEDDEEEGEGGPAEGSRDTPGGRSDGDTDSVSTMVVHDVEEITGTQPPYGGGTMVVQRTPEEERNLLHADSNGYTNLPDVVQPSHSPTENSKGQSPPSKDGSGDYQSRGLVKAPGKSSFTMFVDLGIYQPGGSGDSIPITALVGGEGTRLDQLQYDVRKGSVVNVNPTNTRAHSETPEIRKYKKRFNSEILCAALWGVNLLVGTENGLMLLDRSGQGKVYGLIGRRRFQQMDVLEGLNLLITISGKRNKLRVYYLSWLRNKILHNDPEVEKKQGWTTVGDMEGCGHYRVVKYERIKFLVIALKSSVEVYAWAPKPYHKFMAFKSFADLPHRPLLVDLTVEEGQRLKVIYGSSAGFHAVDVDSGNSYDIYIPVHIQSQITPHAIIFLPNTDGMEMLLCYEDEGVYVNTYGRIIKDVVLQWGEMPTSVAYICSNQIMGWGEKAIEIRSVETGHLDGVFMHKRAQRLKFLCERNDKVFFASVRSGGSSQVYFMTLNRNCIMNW
Chain of Serine/threonine-protein kinase pim-1 (P11309 whole entry): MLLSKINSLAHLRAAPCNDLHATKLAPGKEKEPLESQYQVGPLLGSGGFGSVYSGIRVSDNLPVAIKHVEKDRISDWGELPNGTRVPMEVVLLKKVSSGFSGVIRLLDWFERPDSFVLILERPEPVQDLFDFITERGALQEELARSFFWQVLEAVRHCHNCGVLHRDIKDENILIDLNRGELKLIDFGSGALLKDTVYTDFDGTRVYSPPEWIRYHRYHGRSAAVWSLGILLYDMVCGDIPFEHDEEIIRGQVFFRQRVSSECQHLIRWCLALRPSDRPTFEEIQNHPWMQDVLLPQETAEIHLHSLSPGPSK

Cc1cccc(NC(=O)Nc2ccc3c(c2)CCc2sc4ncnc(N)c4c2-3)c1
inactive: Ki [3] > 10 µM | Ki [7] > 2 µM | Ki [8] > 3.98 µM | Ki [10] > 7.94 µM | Ki [11] > 7.94 µM | Ki (Misshapen-like kinase 1) > 7.94 µM
active: Ki [1] 1 µM | Ki [2] 7.94 µM | Ki [4] 1.58 µM | Ki [5] 3.98 µM | Ki [6] 2.51 µM | Ki [9] 0.126 µM | Ki [12] 6.31 µM | Ki [13] 0.501 µM | Ki [14] 3.16 µM | Ki [15] 3.16 µM

Cc1ccc(-n2sc3ccccc3c2=O)cc1
> 100 µM (inactive) and 38 µM (active): IC50 (Phosphomannomutase 2)
active: EC50 [16] 31.1 µM | EC50 [17] 24.4 µM | IC50 (Hexokinase) 2.64 µM | CC50 [18] 18.6 µM | IC50 [19] 87.4 µM

N/C(=N\N=C/c1ccc(-c2ccc(O)c(C(=O)O)c2)o1)N[N+](=O)[O-]
active: AC50 (ORF 73) 111 µM

CC(=O)N(/N=C1\Sc2ccccc2C1=O)c1ccccc1C
inconclusive: AC50 (Cytochrome P450 3A4) 31.6 µM

CCCC(=O)NC(c1ccc(Cl)cc1)c1ccc2cccnc2c1O (stereo not given)
inactive: EC50 [20] > 285 µM
